Usually TD50 stands for the dose at which the toxic effect under study appears in half of the subjects. What is called pKi is the negative decadic logarithm of the Ki, by convention in mol/L. A low value points to a high Ki. The term LD50 denotes the dose at which mortality reaches 50%. Low readings indicate a more toxic substance, high ones a less toxic substance.

These results are taken from patent publication EP0326134A1, “4-Amino-2,3-disubstituted-6,7-dihydro-5H-1-pyridine derivatives, process for their preparation and medicaments containing them” (NAUCHNO-ISSLEDOVATELSKY INSTITUT TEKHNOLOGII I BEZOPASNOSTI …, priority 1988, dated 1989).

Data set [1] has as its system Orientierungsaktivität. Briefly: Influence on orientation activity. Type of data set: in vivo, Mäusen. The note with it: mice. An excerpt: Von Interesse ist der Einfluß der erfindungsgemäßen Verbindungen auf das ZNS und das Verhalten der Tiere. Alle Verbindungen zeigen eine Kombination von stimulierenden und sedativen Eigenschaften und bei höheren Dosen auch eine m-cholinomimetische Wirkung, wobei Tremor, Speichelfluß und Diarrhoe ausgelöst werden.

Data set [2] relates to durch Skopolamin hervorgerufene Amnesie. Description: Dark avoidance assay (passive avoidance), scopolamine-induced amnesia. It is filed as in vivo, Mäusen. To be noted: mice, compound s.c. 5 min before learning, Skopolamin i.p. 30 min before. The protocol: Die Mäuse wurden dabei in den hellen Abschnitt der Kammer gegeben, wonach die Latenzzeit für den Übertritt in die dunkle Kammer, in der die Tiere einem Stromschlag von 0,5 mA ausgesetzt waren, registriert wurde. Danach erhöhte sich die Latenzzeit für den Übertritt in den dunklen Abschnitt und verringerte sich die Aufenthaltsdauer. 30 Minuten vor dem Versuch wurden den Mäusen i.p. […] Gedächtnisstörungen hervorrufendes Skopolamin als Cholinblocker injiziert. Die erfindungsgemäßen Verbindungen wurden s.c. 5 Minuten vor dem Lernvorgang injiziert. Das Skopolamin verkürzt die Latenzzeit für den Übertritt in die dunkle Kammer, die erfindungsgemäßen Verbindungen stellen jedoch die Latenzzeitwerte wie bei der Kontrollgruppe wieder her oder bedingen ein geringfügiges Überschreiten dieser Werte (siehe Tabelle 2). Gleichzeitig wird die Aufenthaltsdauer der Tiere im dunklen Abschnitt der Kammer auf 36 bis 45 Hundertstel des Ausgangswerts verringert.

The subject of data set [3] is Nerven-Muskel-Präparat von Mäusen (n.peroneus-m.extensor digitorum longus). Description: Neuromuscular transmission in isolated nerve-muscle preparation (EPP, minEPP). To be noted: for Stimulierung der Nerven-Muskelübertragung, in % der Amplitude: EPP: EPP = Endplattenpotential. The source says: Der Einfluß der Stoffe auf die Nerven-Muskei-Übertragung wurde am isolierten Nerven-Muskel-Präparat von Mäusen (n.peroneus-m.extensor digitorum longus) (s. Bhattacharyya B. et al. "Neuromuscular blocking action of two hemicholinium-3 analogs" Europ. J. Pharmac. 146, 155-165 /1988/) untersucht, das von Lilly-Lösung perfundiert wurde, durch die man ein Gemisch von 02 und C02 leitete. […] Das Endplattenpotential (EPP) und das Endplattenminiaturpotential (minEPP) wurden mit Hilfe eines Magnetografen aufgezeichnet und danach mit dem Computer ausgewertet. Ermittelt wurden die Frequenz (f), die Amplitude (A) und die Dauer (t) der minEPP und der EPP (s. Tabelle 2).

In data set [4] the test system is isolierten Präparaten des rechten Vorhofs von Kaninchen. Briefly: Antiarrhythmic effect on isolated right atrium preparations (microelectrodes: AP duration, refractory period R, e/R). To be noted: isolated right atrium of rabbit, microelectrodes. The source says: (§1) Die antiarrhythmische Wirkung der erfindungsgemäßen Verbindungen wurde in zwei Versuchsserien untersucht, und zwar an isolierten Präparaten des rechten Vorhofs von Kaninchen und mit Hilfe des Calciumchlorid-Arrhythmie-Modells an Ratten. In den Versuchen an den isolierten Präparaten des rechten Vorhofs wurden mit Hilfe von Mikroelektroden die Dauer des AP sowie der Refraktärzeit (R) und die maximale Hemmung (e) und der Parameter (e/R) untersucht, durch den die Anfälligkeit des Myokards gegenüber der Entstehung von Arrhythmien gekennzeichnet wird. In den Versuchen an Ratten wurden diesen Calciumchlorid in einer Dosierung von 250 mg/kg injiziert. Registriert wurden das Vorliegen von Kammerflimmern und die Lebensdauer der Tiere. Sämtliche erfindungsgemäßen Verbindungen üben eine mäßige antiarrhythmische Wirkung aus. Sie steigern die Refraktärzeit des Muskels und des AP um 35 bis 145 % und verringern gleichzeitig die Anfälligkeit des Myokards, ausgedrückt durch den Parameter e/R um 10 bis 80 % (s. Tabelle 4). In bezug auf diese Wirkung waren die Salze der bicyclischen Basen wirksamer als Amyridin. Bezüglich des Vermögens, die Tiere vor Kammerflimmern und vor dem Tod nach Verabreichung von 250 mg/kg Calciumchlorid zu schützen, waren diese Verbindungen ebenfalls am stärksten wirksam. Bei Verwendung des Calciumchlorid-Arrhythmie-Modells waren viele erfindungsgemäßen Verbindungen stärker wirksam als das klassische Antiarrhythmikum Chinidin (s. M.D. Ma s kovskij, Lekarstvennye sredstva, Bd. 1, S. 401, Moskau, Medicina, 1984).

For data set [5], the system named is Zahl der Krämpfe. Briefly: Writhing test (intraperitoneal acetic acid). Type of data set: in vivo, Mäusen. The note with it: male mice. The source says:
Die analgetische Wirkung der erfindungsgemäßen Verbindungen wurde an männlichen Mäusen anhand des "Krampf"-Tests (Writhing-Tests) unter intraperitonealer Injizierung von Essigsäure und des Hot-plate-Tests untersucht. Im ersten Falle wurde die analgetische Wirkung der Verbindungen anhand der prozentualen Verringerung der Zahl der Krämpfe ermittelt. Beim zweiten Test wurde die Schwelle der Schmerzempfindlichkeit (Ablecken der Pfoten) bestimmt. Die stärkste analgetische Wirkung der erfindungsgemäßen Verbindungen zeigte sich beim "Krampf"-Test. Dabei übertrafen die Salze der bicyclischen Basen Amyridin, aber nicht alle erfindungsgemäßen Verbindungen waren schwächer als Morphin (s. Tabelle 4).
(Writhing tests count abdominal constrictions after an irritant is injected.)

Data set [6] relates to Wirkung von Hexenal. Description: Influence on the effect of Hexenal. Type of data set: in vivo, Mäusen. To be noted: mice.
The nature of data set [7]: Side effects and CNS/behaviour: tremor (TD50), sedative and m-cholinomimetic effects. Type of data set: in vivo. The note with it: for Verhältnis TD50 zu ED50: ED50 = dose blocking the effect of Skopolamin in 50 % of the animals (passive avoidance, mice). The source says:
Von Interesse ist der Einfluß der erfindungsgemäßen Verbindungen auf das ZNS und das Verhalten der Tiere.

For data set [8], the system named is Calciumchlorid-Arrhythmie-Modells. Description: Calcium chloride arrhythmia model (250 mg/kg): ventricular fibrillation, survival. It is filed as in vivo, Ratten. To be noted: rats, calcium chloride 250 mg/kg.
Source text: as §1

The target of data set [9] is T1, Acetylcholinesterase menschlicher Erythrozyten (Homo sapiens, UniProt P22303).
T1 construct: Acetylcholin-esteraseinhi-bierung bei menschlichen Erythrozyten; from tissue; host or cells: human erythrocytes
Description: Acetylcholinesterase inhibition, spectrophotometric. It is filed as biochemical. The note with it: Acetylcholinesteraseinhibierung bei menschlichen Erythrozyten IK, (Mol), human erythrocyte enzyme. An excerpt:
Untersucht wurden die Wirkmechanismen der erfindungsgemäßen Verbindungen: • 1. Die Wirkung auf Acetylcholinesterase menschlicher Erythrozyten auf spektrofotometrischem Wege. • 2.

Data set [10] can be described thus: Acute toxicity, single intraperitoneal injection, probit analysis (LD50). Type of data set: in vivo, Mäusen. To be noted: mice, i.p. An excerpt:
Ihre akute Toxizität wurde an Mäusen (einmalige intraperitoneale Injektion) nach der Methode der Probit-Analyse nach Zichtfield, Wilcoxon, t949 untersucht. In Tabelle 2 sind die Parameter der akuten Toxizität (LDso) angegeben, die eine mäßige Toxizität der erfindungsgemäßen Verbindungen belegen.

Setting [11] is: toxic dose causing tremor in 50 % of the animals.

pKi: −log10 of the molar value.

T1 sequence (P22303 other isoform, or with tags, fused parts or gaps): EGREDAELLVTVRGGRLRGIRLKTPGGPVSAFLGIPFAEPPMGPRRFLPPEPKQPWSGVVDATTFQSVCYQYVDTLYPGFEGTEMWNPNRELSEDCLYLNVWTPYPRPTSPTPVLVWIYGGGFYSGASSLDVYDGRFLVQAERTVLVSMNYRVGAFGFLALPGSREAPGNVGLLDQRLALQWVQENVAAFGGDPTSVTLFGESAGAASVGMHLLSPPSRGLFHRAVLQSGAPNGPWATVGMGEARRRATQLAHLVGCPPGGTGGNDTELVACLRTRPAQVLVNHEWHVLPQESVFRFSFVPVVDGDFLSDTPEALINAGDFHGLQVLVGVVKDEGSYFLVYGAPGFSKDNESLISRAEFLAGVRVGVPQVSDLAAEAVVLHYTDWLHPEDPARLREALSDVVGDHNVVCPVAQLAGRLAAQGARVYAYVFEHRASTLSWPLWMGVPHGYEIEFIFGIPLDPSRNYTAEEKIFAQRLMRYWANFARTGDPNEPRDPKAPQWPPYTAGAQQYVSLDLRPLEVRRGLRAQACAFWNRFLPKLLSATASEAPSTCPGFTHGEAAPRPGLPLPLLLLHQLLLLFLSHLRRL

As to `Cc1nc2c(c(N)c1C)CCC2` [Verbindung 6], the “Änderung der Orientierungsaktivität, in %” value in [1] is reported as -20%. For the same compound, the “Einfluß auf das Gedächtnis: Zahl der Tiere in %, bei denen die Skopolaminwirkung aufgehoben wurde” value in data set [2] worked out at 60%. Besides, in data set [3], the “Stimulierung der Nerven-Muskelübertragung, in % der Amplitude: EPP” value was found to be 35% and the “Stimulierung der Nerven-Muskelübertragung, in % der Amplitude: minEPP” value was determined as 80%. The “Antiarrhythmische Wirkung: Verlängerung d. Refraktärzeit (R), in %” value (shortened to “Antiarrhythmische Wirkung … (R), in %”) in [4] was 100%. Besides, the “Analgetische Wirkung: Abnahme d. Zahl der "Krämpfe" bei Mäusen, in %” value (“Analgetische Wirkung … in %” for short) in data set [5] turned out to be 70%. Further, the “Änderung der Dauer der Seitenlage, in %: Hexenal 60 mg/kg” value (from here on “Änderung der Dauer der Seitenlage, in %”) in [6] is reported as “+20%”. Besides, in data set [7], the “Verhältnis TD50 zu ED50” value is on record as 10. The compound further yielded a TD50 in [7] (in vivo, toxic dose causing tremor in 50 % of the animals) of 10 mg/kg. Further, in [8], the “Antiarrhythmische Wirkung: Verlängerung d. Lebensdauer von Ratten an Hand des CaCl2-Arrhythmie-Modells, in %” value turned out to be 130%. In data set [9], this compound had a pKi of 6.40. Further, the LD50 in [10] is listed as 35 mg/kg.

In the case of `Cc1nc2c(c(N)c1C)CCC2` [Verbindung 7], the “Änderung der Orientierungsaktivität, in %” value in data set [1] was -25%. Further, the “Einfluß auf das Gedächtnis: Zahl der Tiere in %, bei denen die Skopolaminwirkung aufgehoben wurde” value in [2] is on record as 80%. Moreover, in data set [3], the “Stimulierung der Nerven-Muskelübertragung, in % der Amplitude: EPP” value was found to be 52% and the “Stimulierung der Nerven-Muskelübertragung, in % der Amplitude: minEPP” value stood at 95%. The “Antiarrhythmische Wirkung … (R), in %” value in [4] is on record as 110%. For the same compound, in [5], the “Analgetische Wirkung … in %” value is reported as 60%. Besides, the “Änderung der Dauer der Seitenlage, in %” value in [6] is listed as “+32%”. Also, the “Verhältnis TD50 zu ED50” value in data set [7] is 9. In addition, in data set [7] (setting [11]), the “TD50 (Tremor)” value is 9 mg/kg. For the same compound, in data set [8], the “Antiarrhythmische Wirkung: Verlängerung d. Lebensdauer von Ratten an Hand des CaCl2-Arrhythmie-Modells, in %” value is given as 150%. For the same compound, in data set [9], the pKi was 6.44. This compound also yielded an LD50 in data set [10] of 20 mg/kg.

With `Cc1nc2c(c(N)c1C)CCC2` [Verbindung 9], the “Änderung der Orientierungsaktivität, in %” value in [1] is reported as -20%. The “Einfluß auf das Gedächtnis: Zahl der Tiere in %, bei denen die Skopolaminwirkung aufgehoben wurde” value in data set [2] is on record as 70%. In data set [3], the “Stimulierung der Nerven-Muskelübertragung, in % der Amplitude: EPP” value was determined as 40% and the “Stimulierung der Nerven-Muskelübertragung, in % der Amplitude: minEPP” value was 80%. Besides, the “Antiarrhythmische Wirkung … (R), in %” value in data set [4] came out at 110%. Further, in data set [5], the “Analgetische Wirkung … in %” value is recorded as 70%. Besides, the “Änderung der Dauer der Seitenlage, in %” value in data set [6] is on record as “+30%”. In addition, the “Verhältnis TD50 zu ED50” value in data set [7] is listed as 7. Also, in [7] (setting [11]), the “TD50 (Tremor)” value is recorded as 7 mg/kg. Further, the “Antiarrhythmische Wirkung: Verlängerung d. Lebensdauer von Ratten an Hand des CaCl2-Arrhythmie-Modells, in %” value in [8] came out at 140%. In addition, the negative-log Ki (pKi) in data set [9] was 6.60. The compound further returned a median lethal dose (LD50) in data set [10] of 15 mg/kg.

Consider `Cc1nc2c(c(N)c1C)CCC2` [Verbindung 12, 4-Amino-2,3-dimethyl-6,7-dihydro-5H-1-pyrindinfumarat], for which, in data set [1], the “Änderung der Orientierungsaktivität, in %” value is given as -15%. Besides, the “Einfluß auf das Gedächtnis: Zahl der Tiere in %, bei denen die Skopolaminwirkung aufgehoben wurde” value in data set [2] came out at 50%. Further, in data set [3], the “Stimulierung der Nerven-Muskelübertragung, in % der Amplitude: EPP” value stood at 32% and the “Stimulierung der Nerven-Muskelübertragung, in % der Amplitude: minEPP” value was found to be 70%. Also, in data set [4], the “Antiarrhythmische Wirkung … (R), in %” value came to 110%. The “Analgetische Wirkung … in %” value in [5] worked out at 90%. Also, the “Änderung der Dauer der Seitenlage, in %” value in data set [6] is recorded as “+30%”. The “Verhältnis TD50 zu ED50” value in data set [7] turned out to be 8. For the same compound, in [7] (setting [11]), the “TD50 (Tremor)” value was 7 mg/kg. Besides, the “Antiarrhythmische Wirkung: Verlängerung d. Lebensdauer von Ratten an Hand des CaCl2-Arrhythmie-Modells, in %” value in data set [8] is on record as 130%. The compound also gave a pKi in data set [9] of 6.28. In data set [10], this compound gave an LD50 of 15 mg/kg.

As to `Cc1nc2c(c(N)c1C)CCC2` [Verbindung 13], the “Änderung der Orientierungsaktivität, in %” value in [1] is recorded as -10%. Further, the “Einfluß auf das Gedächtnis: Zahl der Tiere in %, bei denen die Skopolaminwirkung aufgehoben wurde” value in data set [2] was found to be 65%. Further, in data set [3], the “Stimulierung der Nerven-Muskelübertragung, in % der Amplitude: EPP” value came to 35% and the “Stimulierung der Nerven-Muskelübertragung, in % der Amplitude: minEPP” value was 72%. Moreover, the “Antiarrhythmische Wirkung … (R), in %” value in data set [4] is listed as 120%. The “Analgetische Wirkung … in %” value in data set [5] turned out to be 60%. For the same compound, the “Änderung der Dauer der Seitenlage, in %” value in data set [6] is on record as “+25%”. Moreover, the “Verhältnis TD50 zu ED50” value in [7] is 8,5. Moreover, the “TD50 (Tremor)” value in data set [7] (setting [11]) amounted to 8 mg/kg. Also, the “Antiarrhythmische Wirkung: Verlängerung d. Lebensdauer von Ratten an Hand des CaCl2-Arrhythmie-Modells, in %” value in [8] is 100%. The compound also gave a pKi in [9] of 6.35. For the same compound, the median lethal dose (LD50) in data set [10] worked out at 18 mg/kg.
